Results: patent US20250051327A1, “MALT-1 MODULATORS” (EXSCIENTIA AI LIMITED, priority 2020, published 2025)

These molecules were tested against Recombinant human MALT-1 (amino acids 340-824) (Homo sapiens (Human), UniProt Q9UDY8) (assay: MALT-1 inhibition assay (fluorogenic substrate Ac-LRSR-Rh110-DP)). Settings: recombinant human MALT-1, substrate Ac-LRSR-Rh110-DP.
Format: biochemical
Description: MALT-1 paracaspase activity was measured using the fluorogenic substrate Ac-LRSR-Rh110-DP (purchased from Biosantan GmbH). […] The reaction was initiated by addition of substrate. Final concentrations of MALT-1 and substrate were 3 nM and 10 μM respectively. Reactions were incubated in the dark for 60 minutes at 25° C. […] Percent inhibition values were calculated from relative fluorescence units at different doses and fitted to a 4-parameter logistic curve to determine IC50 values (see Table 1).

Sequence of Recombinant human MALT-1 (amino acids 340-824) (Q9UDY8 340-824): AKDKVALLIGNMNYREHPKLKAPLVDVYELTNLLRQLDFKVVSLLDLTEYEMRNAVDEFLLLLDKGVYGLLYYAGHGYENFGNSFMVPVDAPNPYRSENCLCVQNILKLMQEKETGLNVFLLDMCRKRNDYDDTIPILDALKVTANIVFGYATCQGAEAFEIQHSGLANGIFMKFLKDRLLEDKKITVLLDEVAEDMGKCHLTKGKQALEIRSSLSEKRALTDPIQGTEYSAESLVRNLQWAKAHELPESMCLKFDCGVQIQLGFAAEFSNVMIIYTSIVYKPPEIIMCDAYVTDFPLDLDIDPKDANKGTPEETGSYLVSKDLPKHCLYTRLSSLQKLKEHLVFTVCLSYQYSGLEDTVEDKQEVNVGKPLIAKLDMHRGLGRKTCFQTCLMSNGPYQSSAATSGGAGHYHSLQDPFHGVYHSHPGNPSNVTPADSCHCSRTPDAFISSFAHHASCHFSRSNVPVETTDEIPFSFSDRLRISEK

IC50	Molecule
85 nM	CC(=O)N1CCC(C(=O)N(C)[C@@H](c2ccc(N3CCCc4c3cnc3cc(F)nn43)cc2)C(F)(F)F)CC1 [CPD0074050, 1-acetyl-N-methyl-N-[(1S)-2,2,2-trifluoro-1-(4-{4-fluoro-2,3,7,10-tetraazatricyclo[7.4.0.0^2,6]trideca-1(9),3,5,7-tetraen-10-yl}phenyl)ethyl]piperidine-4-carboxamide]
154 nM	CC(=O)N1CCC(C(=O)N(C)[C@@H](c2ccc(N3CCCc4c3cnc3cc(Cl)nn43)nc2)C(F)(F)F)CC1 [CPD0074051, 1-acetyl-N-[(1S)-1-[6-(4-chloro-2,3,7,10-tetrazatricyclo[7.4.0.0^2,6]trideca-1(9),3,5,7-tetraen-10-yl)-3-pyridyl]-2,2,2-trifluoro-ethyl]-N-methyl-piperidine-4-carboxamide]
57 nM	CN(C(=O)[C@H]1C[C@@H](O)C1)[C@@H](c1ccc(N2CCCc3c2cnc2cc(Cl)nn32)cc1)C(F)(F)F [CPD0074538]
46 nM	C[C@@H]1CCN(c2ccc([C@H](N(C)C(=O)[C@@H]3CNC(=O)C3)C(F)(F)F)cc2)c2cnc3cc(Cl)nn3c21 [CPD0074548]
43 nM	C[C@@H]1CCN(c2ccc([C@H](N(C)C(=O)[C@H]3CNC(=O)C3)C(F)(F)F)cc2)c2cnc3cc(Cl)nn3c21 [CPD0074560]
30 nM	C[C@H]1CCN(c2ccc([C@H](N(C)C(=O)[C@@H]3CNC(=O)C3)C(F)(F)F)cc2)c2cnc3cc(Cl)nn3c21 [CPD0074569]
75 nM	CN(C(=O)[C@H]1CC(=O)N1)[C@@H](c1ccc(N2CCCc3c2cnc2cc(Cl)nn32)cc1)C(F)(F)F [CPD0075869, (2R)-N-[(1S)-1-[4-(4-chloro-2,3,7,10-tetrazatricyclo[7.4.0.0^2,6]trideca-1(9),3,5,7-tetraen-10-yl)phenyl]-2,2,2-trifluoro-ethyl]-N-methyl-4-oxo-azetidine-2-carboxamide]
111 nM	CN(C(=O)[C@H]1CCN(C(=O)CO)C1)[C@@H](c1ccc(N2CCCc3c2cnc2cc(F)nn32)cc1)C(F)(F)F [CPD0075878]
154 nM	CN(C(=O)[C@@H]1CCN(C(=O)CO)C1)[C@@H](c1ccc(N2CCCc3c2cnc2cc(F)nn32)cc1)C(F)(F)F [CPD0075879]
109 nM	COc1ccc2ncc(Nc3ccc([C@H](N(C)C(=O)C4CCS(=O)(=O)CC4)C(F)(F)F)cc3)c(C3(F)COC3)c2n1 [CPD0076413, N-methyl-1,1-dioxo-N-[(1S)-2,2,2-trifluoro-1-[4-[[4-(3-fluorooxetan-3-yl)-6-methoxy-1,5-naphthyridin-3-yl]amino]phenyl]ethyl]thiane-4-carboxamide]
45 nM	CO[C@@H](C)c1c(Nc2ccc([C@H](N(C)C(=O)[C@H]3CCC(=O)N3)C(F)(F)F)cc2)cnn2cc(Cl)nc12 [CPD0082469, (2R)-N-[(1S)-1-[4-[[2-chloro-8-[(1 S)-1-methoxyethyl]imidazo[1,2-b]pyridazin-7-yl]amino]phenyl]-2,2,2-trifluoro-ethyl]-N-methyl-5-oxo-pyrrolidine-2-carboxamide]
111 nM	COc1ccc2ncc(Nc3ccc([C@H](N(C)C(=O)C4CCN(C(C)=O)CC4)C(F)(F)F)cc3)c([C@H]3CCOC3)c2n1 [CPD0082479]
77 nM	COc1ccc2ncc(Nc3ccc([C@H](N(C)C(=O)C4CCN(C(C)=O)CC4)C(F)(F)F)cc3)c([C@@H]3CCOC3)c2n1 [CPD0082480]
73 nM	COc1ccc2ncc(Nc3ccc([C@H](N(C)C(=O)C4CCN(C(=O)CO)CC4)C(F)(F)F)cc3)c([C@H]3CCOC3)c2n1 [CPD0082481]
72 nM	COc1ccc2ncc(Nc3ccc([C@H](N(C)C(=O)C4CCN(C(=O)CO)CC4)C(F)(F)F)cc3)c([C@@H]3CCOC3)c2n1 [CPD0082482]
43 nM	CO[C@@H](C)c1c(Nc2ccc([C@H](N(C)C(=O)C3CCN(C(=O)CO)CC3)C(F)(F)F)cc2)cnn2cc(Cl)nc12 [CPD0084141, N-[(1S)-1-[4-[[2-chloro-8-[(1S)-1-methoxyethyl]imidazo[1,2-b]pyridazin-7-yl]amino]phenyl]-2,2,2-trifluoro-ethyl]-1-(2-hydroxyacetyl)-N-methyl-piperidine-4-carboxamide]
54 nM	CO[C@@H](C)c1c(Nc2ccc([C@H](N(C)C(=O)C3CC4(C3)CS(=O)(=O)C4)C(F)(F)F)cc2)cnn2cc(Cl)nc12 [CPD0084934]

Molecule	IC50
N-[(1S)-1-[4-[[2-chloro-8-[(1S)-1-methoxyethyl]imidazo[1,2-b]pyridazin-7-yl]amino]phenyl]-2,2,2-trifluoro-ethyl]-N-methyl-1,1-dioxo-thiane-4-carboxamide [CPD0084508]	182 nM

What follows are molecules tested on IL-2 secretion by human effector memory T cells (TEM) (assay: Effector memory T cells IL-2 release assay). Settings: T-cell; human CD4+ effector memory T cells, CD3/CD28 bead stimulation, 24 h; read-out: CD4TC IL2 IC50.
Format: cell-based
Description: Effector Memory T Cells IL-2 Release Assay
Test compound-mediated inhibition of NFκB signalling in T cells was assessed by quantification of the IL-2 secretion by human effector memory T cells (TEM) upon treatment and stimulation. Human TEM cells were isolated from buffy coats of healthy donors obtained from the French blood bank. First, peripheral blood mononuclear cells (PBMC) were purified from buffy coats diluted 1:1 with DPBS (Gibco, cat #14190-094) by Pancoll (PAN BIOTECH, cat #P04-60500) density gradient centrifugation at 400×g for 20 minutes. TEM cells were further enriched by negative immuno-magnetic cell sorting using a human CD4+ Effector Memory T Cell Isolation Kit (Miltenyi, cat #130-094-125) according to the manufacturer's instructions. Aliquots of 3×10E6 purified TEM cells were kept frozen in Cryo-SFM medium (PromoCell, cat #C-29912) in gas phase nitrogen until used. Cell purity was verified by flow cytometry analysis of 200 000 PFA-fixed cells previously labelled with monoclonal antibodies anti-CD4-PerCP-Cy5.5 (BD Pharmigen, cat #332772), anti-CD8-V500 (BD Biosciences, cat #561617), anti-CD14-Pacific Blue (Biolegend, cat #325616), anti-CD45 RA-FITC (Biolegend, cat #304106) and anti-CCR7-APC (in CD4+ Effector Memory T Cell Isolation Kit, Miltenyi, cat #130-094-125).
TEM cells were resuspended in complete RPMI medium composed of: RPMI 1640 (Gibco, cat #31870-025), 10% heat inactivated fetal bovine serum (Sigma, cat #F7524), 2 mM GlutaMAX (Gibco, cat #35050-038), 1 mM sodium pyruvate 100× (Gibco, cat #11360-039), 1% MEM non-essential amino acids solution (Gibco, cat #11140-035) and 100 U/mL penicillin, 100 μg/mL streptomycin (Sigma-Aldrich, cat #11074440001). 5,000 cells per well were plated onto flat clear bottom 384 well plates (Corning, cat #3770). 5,000 Dynabeads Human T-Activator CD3/CD28 (Gibco, cat #11132D) were added to each well for cell stimulation. Finally, 10 doses of test compound, originally prepared in DMSO by serial semi-log step dilution, were also added to cells in triplicate wells. Final DMSO concentration in wells was 0.1% in a total volume of 100 μL complete medium. Plates were incubated for 24 h at 37° C. in 5% CO2 atmosphere. After incubation, cell suspensions were centrifuged at 400×g and culture supernatants were recovered and stored at −80° C. Cell viability was assessed by flow cytometry after staining the cells with Fixable Viability Dye eFluor 780 (Invitrogen, cat #65-0865-14). IL-2 levels were determined in cell supernatants using an HTRF human IL-2 detection kit (Cisbio, cat #62HIL02PEH). IL-2 data at the different compound doses were fitted to a 4-parameter logistic curve to determine IC50 values, corresponding to the compound concentration leading to 50% reduction of the maximal IL-2 levels observed in each experiment. Viability data were analysed similarly to exclude cytotoxicity as a cause of IL-2 decrease (see Table 1).

IC50	Molecule
180 nM	COc1ccc2ncc(Nc3ccc([C@H](N(C)C(=O)C4CCS(=O)(=O)CC4)C(F)(F)F)cn3)c([C@@H](C)OC)c2n1 (relative stereo) [CPD0019006, N-methyl-1,1-dioxo-N-[(1S)-2,2,2-trifluoro-1-[6-({6-methoxy-4-[(1 rel S)-1-methoxyethyl]-1,5-naphthyridin-3-yl}amino)pyridin-3-yl]ethyl]-1λ^6-thiane-4-carboxamide]
20 nM	COc1ccc2ncc(Nc3ccc([C@H](N(C)C(=O)C4CCS(=O)(=O)CC4)C(F)(F)F)cc3)c([C@H](C)OC)c2n1 (relative stereo) [CPD0019170, N-methyl-1,1-dioxo-N-[(1S)-2,2,2-trifluoro-1-[4-({6-methoxy-4-[(1 rel S)-1-methoxyethyl]-1,5-naphthyridin-3-yl}amino)phenyl]ethyl]-1λ^6-thiane-4-carboxamide]
110 nM	COc1ccc2ncc(Nc3ccc([C@H](N(C)C(=O)C4CCS(=O)(=O)CC4)C(F)(F)F)cc3)c([C@@H](C)OC)c2n1 (relative stereo) [CPD0019171, N-methyl-1,1-dioxo-N-[(1S)-2,2,2-trifluoro-1-[4-({6-methoxy-4-[(1 rel R)-1-methoxyethyl]-1,5-naphthyridin-3-yl}amino)phenyl]ethyl]-1λ^6-thiane-4-carboxamide]
34 nM	COc1ccc2ncc(Nc3ccc([C@H](N(C)C(=O)[C@H]4CC[S@@+]([O-])CC4)C(F)(F)F)cc3)c([C@H](C)OC)c2n1 (relative stereo) [CPD0072935, (1rel-s,4rel-s)-N-methyl-1-oxo-N-[(1S)-2,2,2-trifluoro-1-[4-({6-methoxy-4-[(1 rel-S)-1-methoxyethyl]-1,5-naphthyridin-3-yl}amino)phenyl]ethyl]-1λ^4-thiane-4-carboxamide]
17 nM	COc1ccc2ncc(Nc3ccc([C@H](N(C)C(=O)[C@H]4CC[S@+]([O-])CC4)C(F)(F)F)cc3)c([C@H](C)OC)c2n1 (relative stereo) [CPD0072936, (1rel-r,4rel-r)-N-methyl-1-oxo-N-[(1S)-2,2,2-trifluoro-1-[4-({6-methoxy-4-[(1 rel-S)-1-methoxyethyl]-1,5-naphthyridin-3-yl}amino)phenyl]ethyl]-1λ^4-thiane-4-carboxamide]
80 nM	COc1ccc2ncc(Nc3ccc([C@H](N(C)C(=O)C4CCS(=O)(=O)CC4)C(F)(F)F)cc3)c([C@H]3CCCO3)c2n1 (relative stereo) [CPD0074043, N-methyl-1,1-dioxo-N-[(1S)-2,2,2-trifluoro-1-[4-[6-methoxy-4-[(2 rel-R)-tetrahydrofuran-2-yl]-1,5-naphthyridin-3-yl]amino]phenyl]ethyl]thiane-4-carboxamide]
41 nM	COc1ccc2ncc(Nc3ccc([C@H](N(C)C(=O)[C@@H]4CNC(=O)C4)C(F)(F)F)cc3)c([C@H](C)OC)c2n1 (relative stereo) [CPD0074550, (3 rel S)-N-methyl-5-oxo-N-[(1S)-2,2,2-trifluoro-1-[4-[6-methoxy-4-[(1 rel S)-1-methoxyethyl]-1,5-naphthyridin-3-yl]amino]phenyl]ethyl]pyrrolidine-3-carboxamide]
